Laboratory results taken from ChEMBL document CHEMBL5728971, “Small molecule inhibitors of lactate dehydrogenase and methods of use thereof” (2022).

test: Biochemical Assay: Test compounds were placed in a Greiner Bio-One (Monroe, N.C.) 1536-well black solid bottom assay plate. 200 millimolar (mM) Tris HCl, pH 7.4, 100 micromolar (μM) EDTA and 0.01% TWEEN-20™, final concentration, was used as the assay buffer. The LDHA reagent was 2 nanomolar (nM) Human LDHA (Meridian Life Science, Inc., Memphis, Tenn.), final concentration, in assay buffer.

Row | SMILES | IC50
1 | COc1cccc(-c2cccc(-c3nn(-c4nc(C(=O)O)cs4)c(C(F)(F)F)c3Cc3ccc(S(N)(=O)=O)cc3)c2)c1 | < 100 nM
2 | NS(=O)(=O)c1ccc(Cc2c(-c3ccc(F)c(OCC4CC4(F)F)c3)nn(-c3nc(C(=O)O)cs3)c2CC2CC2)cc1F (stereo not given) | < 100 nM
3 | NS(=O)(=O)c1ccc(Cc2c(CC3CC3)nn(-c3nc(C(=O)O)cs3)c2-c2ccc(F)c(-c3ccc(F)cc3)c2)cc1 | in the range around 29000 nM
4 | NS(=O)(=O)c1ccc(Cc2c(CC3CC3)nn(-c3nc(C(=O)O)cs3)c2-c2ccc(C(O)(C3CC3)C(F)(F)F)cc2)cc1F (stereo not given) | in the range around 29000 nM
5 | NS(=O)(=O)c1ccc(Cc2c(-c3ccc(F)c(C#CCN4CCOCC4)c3)nn(-c3nc(C(=O)O)cs3)c2CC2CC2)cc1F | < 100 nM
6 | NS(=O)(=O)c1ccc(Cc2c(-c3ccc(F)c(C#CC4CCCC4)c3)nn(-c3nc(C(=O)O)cs3)c2CC2CC2)cc1 | < 100 nM
7 | NS(=O)(=O)c1ccc(Cc2c(-c3ccc(F)c(C#CCCO)c3)nn(-c3nc(C(=O)O)cs3)c2CC2CC2)cc1F | < 100 nM
8 | NS(=O)(=O)c1ccc(Cc2c(-c3ccc(F)c(C#CC4=CCCC4)c3)nn(-c3nc(C(=O)O)cs3)c2CC2CC2)cc1F | < 100 nM
9 | Cc1ccc(-c2cc(-c3nn(-c4nc(C(=O)O)cs4)c(CC4CC4)c3Cc3ccc(S(N)(=O)=O)c(F)c3)ccc2F)s1 | < 100 nM
10 | CC(C)(C)/C=C/c1cc(-c2nn(-c3nc(C(=O)O)cs3)c(CC3CC3)c2Cc2ccc(S(N)(=O)=O)c(F)c2)ccc1F | < 100 nM
11 | NS(=O)(=O)c1ccc(Cc2c(-c3ccc(F)c(C4CCC4)c3)nn(-c3nc(C(=O)O)cs3)c2CC2CC2)cc1F | < 100 nM
12 | Cc1ncc(-c2cc(-c3nn(-c4nc(C(=O)O)cs4)c(CC4CC4)c3Cc3ccc(S(N)(=O)=O)c(F)c3)ccc2F)s1 | < 100 nM
13 | NS(=O)(=O)c1ccc(Cc2c(-c3ccc(F)c(C4=CCCC4)c3)nn(-c3nc(C(=O)O)cs3)c2CC2CC2)cc1F | < 100 nM
14 | C#Cc1c(Cc2ccc(S(N)(=O)=O)cc2)c(-c2ccccc2)nn1-c1nc(C(=O)O)cs1 | in the range around 29000 nM
15 | COc1cccc(-c2cc(-c3nn(-c4nc(C(=O)O)cs4)c(CC4CC4)c3Cc3ccc(S(N)(=O)=O)c(F)c3)ccc2F)c1 | < 100 nM
16 | CC#Cc1cc(-c2nn(-c3nc(C(=O)O)cs3)c(CC3CC3)c2Cc2ccc(S(N)(=O)=O)c(F)c2)ccc1F | < 100 nM
17 | Cc1ccc(-c2cc(-c3nn(-c4nc(C(=O)O)cs4)c(CC4CC4)c3Cc3ccc(S(N)(=O)=O)c(Cl)c3)ccc2F)s1 | < 100 nM
18 | NS(=O)(=O)c1ccc(Cc2c(-c3ccc(F)c(C#CCC4CC4)c3)nn(-c3nc(C(=O)O)cs3)c2CC2CC2)cc1F | < 100 nM
19 | Cc1ccc(C#Cc2cc(-c3nn(-c4nc(C(=O)O)cs4)c(CC4CC4)c3Cc3ccc(S(N)(=O)=O)c(F)c3)ccc2F)s1 | < 100 nM
20 | C=C(c1cc(-c2nn(-c3nc(C(=O)O)cs3)c(CC3CC3)c2Cc2ccc(S(N)(=O)=O)c(F)c2)ccc1F)C(F)(F)F | < 100 nM
21 | O=C(O)c1csc(-n2nc(-c3ccccc3)cc2O)n1 | > 57000 nM
22 | NS(=O)(=O)c1ccc(Cc2c(-c3cccc(OC4CCCC4)c3)nn(-c3nc(C(=O)O)cs3)c2CC2CC2)c(F)c1 | < 100 nM
23 | CCOC(=O)c1csc(-n2nc(-c3cccc(OC4CCCC4)c3)c(Cc3ccc(S(N)(=O)=O)cc3F)c2CC2CC2)n1 | in the range around 29000 nM
24 | Cc1noc(C)c1-c1cc(-c2nn(-c3nc(C(=O)O)cs3)c(CC3CC3)c2Cc2ccc(S(N)(=O)=O)c(F)c2)ccc1F | < 100 nM

Row | SMILES | IC50
25 | Cc1ccc(-c2cc(-c3nn(-c4nc(C(=O)O)cs4)c(C(F)(F)F)c3Cc3ccc(S(N)(=O)=O)cc3)ccc2F)cc1 | < 100 nM
26 | O=C(O)c1csc(-n2nc(-c3ccc(F)cc3)cc2O)n1 | > 57000 nM
27 | CCOC(=O)c1csc(-n2nc(-c3ccc(F)c(C#CC4CCCC4)c3)c(Cc3cccc(S(N)(=O)=O)c3)c2CC2CC2)n1 | > 57000 nM
28 | NS(=O)(=O)c1ccc(Cc2c(CC3CC3)nn(-c3nc(C(=O)O)cs3)c2-c2cccc(OCc3ccccc3)c2)cc1 | in the range around 29000 nM
29 | NS(=O)(=O)c1ccc(Cc2c(-c3cccc(-c4ccccc4)c3)nn(-c3nc(C(=O)O)cs3)c2C2(C(F)(F)F)CC2)c(F)c1 | in the range around 550 nM
30 | NS(=O)(=O)c1ccc(Cc2c(-c3ccc(F)c(-c4ccccc4F)c3)nn(-c3nc(C(=O)O)cs3)c2CC2CC2)cc1F | < 100 nM
31 | CC(C)=Cc1cc(-c2nn(-c3nc(C(=O)O)cs3)c(CC3CC3)c2Cc2ccc([SH+](N)[O-])c(F)c2)ccc1F (stereo not given) | < 100 nM
32 | NS(=O)(=O)c1ccc(Cc2c(-c3ccc(F)c(Br)c3)nn(-c3nc(C(=O)O)cs3)c2CC2CC2)cc1 | < 100 nM
33 | COc1cccc(-c2cc(-c3nn(-c4nc(C(=O)O)cs4)c(C4CC4)c3Cc3ccc(S(N)(=O)=O)c(F)c3)ccc2F)c1 | < 100 nM
34 | Cc1ccc(-c2cc(-c3nn(-c4nc(C(=O)O)cs4)c(CC4CC4)c3Cc3ccc(S(N)(=O)=O)cc3F)ccc2F)s1 | < 100 nM
35 | CCOC(=O)c1csc(-n2nc(-c3cccc(-c4ccc(C)cc4)c3)c(Cc3ccc(S(N)(=O)=O)cc3F)c2CC2CC2)n1 | > 57000 nM
36 | NS(=O)(=O)c1ccc(Cc2c(-c3cccc(-c4ccccc4)c3)nn(-c3nc(C(=O)O)cs3)c2C2(C(F)(F)F)CC2)cc1F | in the range around 29000 nM
37 | NS(=O)(=O)c1ccc(Cc2c(-c3ccc(F)c(C#CC(F)(F)F)c3)nn(-c3nc(C(=O)O)cs3)c2CC2CC2)cc1F | in the range around 550 nM
38 | NS(=O)(=O)c1ccc(Cc2c(C3CCCC3)nn(-c3nc(C(=O)O)cs3)c2-c2ccccc2)cc1 | in the range around 29000 nM
39 | NC(=O)c1ccc(Cc2c(-c3cccc(-c4ccccc4)c3)nn(-c3nc(C(=O)O)cs3)c2O)cc1 | > 57000 nM
40 | CCOC(=O)c1csc(-n2nc(-c3cccc(OC4CCCC4)c3)c(Cc3ccc(S(N)(=O)=O)c(F)c3)c2CC2CC2)n1 | in the range around 29000 nM
41 | NS(=O)(=O)c1ccc(Cc2c(-c3ccc(F)c(C#CC4CC4)c3)nn(-c3nc(C(=O)O)cs3)c2CC2CC2)cc1 | < 100 nM
42 | NS(=O)(=O)c1ccc(Cc2c(-c3ccc(F)c(C#CCC4CCCC4)c3)nn(-c3nc(C(=O)O)cs3)c2CC2CC2)cc1F | < 100 nM
43 | NS(=O)(=O)c1ccc(Cc2c(CC(F)(F)F)nn(-c3nc(C(=O)O)cs3)c2-c2cccc(-c3ccccc3)c2)cc1 | in the range around 29000 nM
44 | Cc1ccc(-c2cc(-c3c(Cc4ccc(S(N)(=O)=O)c(F)c4)c(CC4CC4)nn3-c3nc(C(=O)O)cs3)ccc2F)s1 | > 57000 nM
45 | NS(=O)(=O)c1ccc(Cc2c(-c3cccc(OCc4ccccc4)c3)nn(-c3nc(C(=O)O)cs3)c2CC2CC2)cc1F | < 100 nM
46 | Cc1cnc(-c2cc(-c3nn(-c4nc(C(=O)O)cs4)c(CC4CC4)c3Cc3ccc(S(N)(=O)=O)c(F)c3)ccc2F)s1 | < 100 nM
47 | NS(=O)(=O)c1cccc(Cc2c(-c3ccc(F)c(-c4cccc(F)c4)c3)nn(-c3nc(C(=O)O)cs3)c2CC2CC2)c1 | in the range around 29000 nM
48 | NS(=O)(=O)c1ccc(Cc2c(-c3ccc(F)c(-c4ccccc4)c3)nn(-c3nc(C(=O)O)cs3)c2CC2CC2)cc1F | < 100 nM

Row | SMILES | IC50
49 | CC(C)(C)Cc1cc(-c2nn(-c3nc(C(=O)O)cs3)c(CC3CC3)c2Cc2ccc(S(N)(=O)=O)c(F)c2)ccc1F | < 100 nM
50 | CCOC(=O)c1csc(-n2nc(-c3cccc(-c4ccccc4)c3)c(Cc3ccc(S(N)(=O)=O)cc3)c2C2(C(F)(F)F)CC2)n1 | > 57000 nM
51 | CCOC(=O)c1csc(-n2nc(-c3cccc(-c4ccccc4)c3)c(Cc3ccc(S(N)(=O)=O)c(F)c3)c2CC2CC2)n1 | > 57000 nM
52 | CCOC(=O)c1csc(-n2nc(-c3ccc(F)c(-c4ccc(F)cc4)c3)c(Cc3ccc(S(N)(=O)=O)c(F)c3)c2C2CC2)n1 | in the range around 29000 nM
53 | NS(=O)(=O)c1ccc(Oc2cn(-c3nc(C(=O)O)cs3)nc2-c2ccccc2)cc1 | < 100 nM
54 | CCOC(=O)c1csc(-n2nc(-c3cccc(-c4ccccc4)c3)c(Cc3ccc(S(N)(=O)=O)cc3)c2CC2CC2)n1 | in the range around 29000 nM
55 | COc1cccc(-c2cc(-c3nn(-c4nc(C(=O)O)cs4)c(CC4CC4)c3Cc3ccc(S(N)(=O)=O)cc3)ccc2F)c1 | < 100 nM
56 | NS(=O)(=O)c1ccc(Cc2c(-c3ccc(F)c(C4CCCC4)c3)nn(-c3nc(C(=O)O)cs3)c2CC2CC2)cc1F | < 100 nM
57 | COc1cccc(-c2cccc(-c3c(Cc4ccc(S(N)(=O)=O)c(F)c4)c(C4CC4)nn3-c3nc(C(=O)O)cs3)c2)c1 | in the range around 29000 nM
58 | NS(=O)(=O)c1ccc(Cc2c(-c3ccc(F)c(C#CC4CCNCC4)c3)nn(-c3nc(C(=O)O)cs3)c2CC2CC2)cc1F | < 100 nM
59 | NS(=O)(=O)c1ccc(Cc2c(-c3ccc(F)c(C4CC4)c3)nn(-c3nc(C(=O)O)cs3)c2CC2CC2)cc1F | < 100 nM
60 | NS(=O)(=O)c1ccc(Cc2c(-c3ccc(F)c(CC4CC4)c3)nn(-c3nc(C(=O)O)cs3)c2CC2CC2)cc1F | < 100 nM
61 | NS(=O)(=O)c1ccc(Cc2cn(-c3nc(Br)cs3)nc2-c2ccccc2)cc1 | in the range around 29000 nM
62 | NS(=O)(=O)c1ccc(Cc2c(-c3ccc(F)c(C4=COCCC4)c3)nn(-c3nc(C(=O)O)cs3)c2CC2CC2)cc1F | < 100 nM
63 | Cc1noc(C)c1-c1cc(-c2c(Cc3ccc(S(N)(=O)=O)cc3F)c(CC3CC3)nn2-c2nc(C(=O)O)cs2)ccc1F | > 57000 nM
64 | NS(=O)(=O)c1ccc(Cc2c(-c3cccc(-c4cccc(F)c4)c3)nn(-c3nc(C(=O)O)cs3)c2CC2CC2)cc1F | < 100 nM
65 | NS(=O)(=O)c1ccc(Cc2c(C3CC3)nn(-c3nc(C(=O)O)cs3)c2-c2cccc(-c3ccc(F)cc3)c2)c(F)c1 | in the range around 29000 nM
66 | NS(=O)(=O)c1ccc(Cc2c(-c3ccc(F)c(C4C5CC6CC(C5)CC4C6)c3)nn(-c3nc(C(=O)O)cs3)c2CC2CC2)cc1F (stereo not given) | in the range around 550 nM
67 | NS(=O)(=O)c1ccc(Cc2c(-c3ccc(F)c(C#CC4(F)COC4)c3)nn(-c3nc(C(=O)O)cs3)c2CC2CC2)cc1F | < 100 nM
68 | N#Cc1c(Cc2ccc(S(N)(=O)=O)cc2)c(-c2ccccc2)nn1-c1nc(C(=O)O)cs1 | < 100 nM
69 | NS(=O)(=O)c1ccc(Cc2c(-c3ccc(F)c(C#CC4CC4)c3)nn(-c3nc(C(=O)O)cs3)c2CC2CC2)cc1F | < 100 nM
70 | NS(=O)(=O)c1ccc(Cc2c(-c3ccc(F)c(C#CC4(O)COC4)c3)nn(-c3nc(C(=O)O)cs3)c2CC2CC2)cc1F | < 100 nM
